Results taken from US6426317B1, “Stable, high available halogen 1,3,5-triazine-2,4,6-trione compositions having rapid dissolution rates” (Great Lakes Chemical Corporation, priority 1999, dated 2002).

How the values were obtained:
[1] = in water at 20° C.; cited from earlier work
[2] = NFPA scale from 1 to 4, NFPA 430, 1995 edition; cited from earlier work
[3] = Total chlorine in synthetic pool water exposed to environmental UV light (Example 7); format: physicochemical; design: unit not given here
[4] = for effect of additive on off-gassing of trichloroisocyanuric acid: Example 1, 25.5% additive
[5] = Off-gassing of roll-compacted granules contaminated with water (Examples 4-6); format: physicochemical; conditions: Table 9; Example 6
[6] = Solubility (15-minute dissolution) of granules in balanced swimming pool water, thiosulfate titration; conditions: Table 9; Example 6
[7] = Off-gassing of granular formula compositions (Example 3); format: physicochemical; conditions: Example 3, granules
Protocol: The formula compositions produced in this example were tested for their stability and in some cases for their solubility. The components used included a dissolution aid: disodium cyanurate, and a disintegration agent: microcrystalline cellulose, Lattice® NT (FMC).
Again, blended powder samples were prepared for each formula composition. A 20-gram sample of each test formula composition was placed in a 2.0 inch diameter dye-punch set and compressed under 22 tons of force for 60 minutes using a Carver press. The compressed wafer was reduced to granules using a spatula and a mortar and pestle set. Properly sized granules were collected using a standard sieve shaker.
Approximately one gram of each granular formula composition sample was placed in an eight-ounce sample container. […] The containers were vapor sealed and carefully placed in an approximately 50° C. oven for 24 hours. After the sample set was removed from the oven and cooled, a one-ml aliquot from each sample was placed in 50 ml of deionized water and titrated with 0.100 N sodium thiosulfate. The volume of thiosulfate reagent used to titrate the available halogen in the KI solution was recorded.

For [Ca+2].[O-]Cl.[O-]Cl [Calcium hypochlorite, calcium hypochlorite], the Solubility [1] is listed as “≅22^3 g/100g (%)”, the “Oxidizer Rating” value [2] is listed as 3 and the “Total Cl” value ([3]; sampling time 0:00 (Hr:Min), 10 ppm available halogen added, outdoor UV light) is listed as 0.02. The “Total Cl” value ([3]; sampling time 0:05) was 6.8, the “Total Cl” value ([3]; sampling time 0:10) was 6.8 and the “Total Cl” value ([3]; sampling time 0:15) was 7.2. The “Total Cl” value ([3]; sampling time 0:20) was 6.8, the “Total Cl” value ([3]; sampling time 0:25) was 6.0 and the “Total Cl” value ([3]; sampling time 0:30) was 5.1. The “Total Cl” value ([3]; sampling time 0:40) was 5.0, the “Total Cl” value ([3]; sampling time 0:50) was 3.3 and the “Total Cl” value ([3]; sampling time 1:00) was 3.5. For the same compound, the “Total Cl” value ([3]; sampling time 1:15) was 2.2 and the “Total Cl” value ([3]; sampling time 1:30) was 2.6.

For O=c1n(Cl)c(=O)n(Cl)c(=O)n1Cl [Trichloroisocyanuric acid, 1,3,5-trichloro-1,3,5-triazine-2,4,6-trione], the “Titrant Volume (off-gassing)” value ([4]; Table 1, compressed powder wafer, 5 ml 15% KI, approximately 50° C., 24 hours, 0.100 N sodium thiosulfate) is given as 2.65 mL, the Solubility [1] is given as 1.2^4 g/100g (%) and the “Oxidizer Rating” value [2] is given as 1. The “Off-Gassing Titrant Volume” value [5] was 2.00 mL and the “Solubility Titrant Volume” value [6] was 1.90 mL.

With O=C([O-])O.[Na+] [sodium bicarbonate] the “effect of additive on off-gassing of trichloroisocyanuric acid” value [4] was “increase gassing significantly”.

For OB(O)O [boric acid], the “effect of additive on off-gassing of trichloroisocyanuric acid” value [4] was “do not significantly affect the off-gassing profile of trichloroisocyanuric acid”.

For [Li+].[O-]Cl [Lithium hypochlorite], the Solubility [1] is listed as “≅43^3 g/100g (%)” and the “Oxidizer Rating” value [2] is listed as 2.

For O=c1nc([O-])n(Cl)c(=O)n1Cl.[Na+] [Sodium dichloroisocyanurate anhydrous, sodium dichloroisocyanurate], the Solubility [1] is given as 12.5^4 g/100g (%) and the “Oxidizer Rating” value [2] is given as 3.

In the case of O=c1[n-]c(=O)n(Cl)c(=O)n1Cl.[K+] [Potassium dichloroisocyanurate anhydrous, potassium dichloroisocyanurate], the Solubility [1] is listed as 5.0^4 g/100g (%) and the “Oxidizer Rating” value [2] is listed as 3.

With O=c1nc([O-])nc([O-])[nH]1.[Na+].[Na+] [disodium cyanurate, disodium salt of 1,3,5-triazine-2,4,6-trione] the “effect of additive on off-gassing” value [7] was “do not significantly affect the off-gassing profile”.
